# In patent US20200055891A1, “NOVEL PHOSPHOTRIAZOLE MRNA 5'-END CAP ANALOGS, COMPOSITION COMPRISING THE SAME, RNA MOLECULE INCORPORATING THE SAME, USES THEREOF AND METHOD OF SYNTHESIZING RNA MOLECULE, PROTEIN OR PEPTIDE” (UNIWERSYTET WARSZAWSKI, priority 2016, published 2020):
# Where a name gives a salt, the structure may show the parent alone.
# How the values were obtained:
# [1] = Hydrolysis in D2O seen in NMR spectra; format: physicochemical; conditions: dissolved in D2O just before NMR measurement; given if higher than 5%
# Description: Some cap analogues hydrolyzed in D2O gradually. Although pure compounds (see HPLC profiles, Supporting Information 2) were dissolved in D2O just before measurements, the spectra indicated some level of hydrolysis. % of hydrolysis is provided along with compound characterization data, if higher than 5%.
# [2] = biological target: T1, SP6 RNA polymerase (Enterobacteria phage SP6, UniProt P06221); test: Capping efficiency: incorporation of cap analogues at the 5′ end of short transcripts by in vitro transcription; format: biochemical; conditions: 1.25 mM cap analogue, 0.125 mM GTP
# T1 construct: purchased New England BioLabs
# T1 sequence (P06221 1-874): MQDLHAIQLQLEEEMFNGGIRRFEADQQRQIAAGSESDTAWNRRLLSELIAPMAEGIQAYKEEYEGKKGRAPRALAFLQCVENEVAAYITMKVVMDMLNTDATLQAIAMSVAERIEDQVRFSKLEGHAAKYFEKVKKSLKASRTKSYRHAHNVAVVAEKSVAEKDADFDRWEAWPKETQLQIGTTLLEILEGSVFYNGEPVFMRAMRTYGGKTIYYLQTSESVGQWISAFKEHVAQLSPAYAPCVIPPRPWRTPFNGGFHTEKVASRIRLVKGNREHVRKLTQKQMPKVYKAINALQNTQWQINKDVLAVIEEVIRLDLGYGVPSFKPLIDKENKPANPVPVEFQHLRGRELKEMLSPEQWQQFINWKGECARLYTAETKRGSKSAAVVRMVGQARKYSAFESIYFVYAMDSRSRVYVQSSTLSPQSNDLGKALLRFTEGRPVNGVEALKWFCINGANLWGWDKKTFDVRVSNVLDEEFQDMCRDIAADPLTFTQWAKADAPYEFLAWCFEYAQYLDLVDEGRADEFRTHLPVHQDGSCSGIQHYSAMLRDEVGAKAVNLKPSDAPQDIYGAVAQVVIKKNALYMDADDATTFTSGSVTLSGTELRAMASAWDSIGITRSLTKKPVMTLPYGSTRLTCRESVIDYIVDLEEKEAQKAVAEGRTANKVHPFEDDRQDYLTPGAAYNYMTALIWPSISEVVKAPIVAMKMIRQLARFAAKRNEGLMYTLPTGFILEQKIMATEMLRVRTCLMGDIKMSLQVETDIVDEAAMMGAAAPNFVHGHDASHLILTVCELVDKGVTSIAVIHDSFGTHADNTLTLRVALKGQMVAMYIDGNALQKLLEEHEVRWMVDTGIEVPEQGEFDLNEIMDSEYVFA
# Description: Prior to in vitro transcription annealing of a template was performed. DNA1 (SEQ ID NO: 1) and DNA2 (SEQ ID NO: 2) (20 μM each) were incubated in the presence of 4 mM Tris-HCl pH 8.0, 15 mM NaCl and 0.1 mM EDTA at 95° C. for 2 min and then at room temperature for 30 min. After 10-fold dilution the mixture was directly used for in vitro transcription.
# The reaction was quenched by addition of 2 μl of 0.5 M EDTA pH 8.0 and purified with RNA Clean&Concentrator-5 kit (Zymo Research) to afford capped RNA1 (SEQ ID NO: 4) strands.
# To reduce heterogeneity, each capped RNA1 (11.42 ng/μl, ca. 1 μM) was incubated in presence of 50 mM Tris-HCl pH 8.0, 50 mM MgCl2, RiboLock RNase Inhibitor (ThermoFisher Scientific) (2.0 U/μl) and DNA3 (SEQ ID NO: 3) (1 μM) at 37° C. for 1 h to afford RNA2 (SEQ ID NO: 5).^44 The reaction was stopped by freezing in liquid nitrogen and directly analyzed by PAGE (FIG. 3).
# Relative bands intensity was determined using CLIQS v1.0 program.
# [3] = test system: Rabbit Reticulocyte Lysate; test: Translation efficiency of capped firefly luciferase mRNA in Rabbit Reticulocyte Lysate System; format: biochemical; conditions: relative, m^7GpppG = 1
# Description: The reaction was quenched by addition of 2 μl of 0.5 M EDTA pH 8.0 and purified with NucleoSpin RNA Clean-up XS kit (Macherey-Nagel) to afford luciferase-coding RNA strands capped with appropriate cap analogue.
# For each capped luciferase-coding RNA four diluted solutions were prepared—3.0 ng/μl, 1.5 ng/μl, 0.75 ng/μl, 0.375 ng/μl. Translation studies were performed using Rabbit Reticulocyte Lysate System (Promega). 9 μl of a mixture containing Rabbit Reticulocyte Lysate (4 μl), Amino Acid Mixture Minus Leucine (0.05 μl of 1 mM solution), Amino Acid Mixture Minus Methionine (0.05 μl of 1 mM solution), potassium acetate (1.9 μl of 1 M solution), MgCl2 (0.4 μl of 25 mM solution) and 2.1 μl of water was incubated at 30° C. for 1 h after which 1 μl of appropriate luciferase-coding RNA solution was added and incubation of the reaction was continued at 37° C. for another hour. The reaction was stopped by freezing in liquid nitrogen.
# Translation efficiency was determined using Luciferase Reporter System (Promega). The samples were defrosted just before the experiment. To every sample 50 μl of Luciferase Assay Reagent was added just before measurement of luminescence on Synergy H1 Microplate Reader (Bio Tek). The measurement were performed for every four samples independently due to low stability of luminescence signal. The results are presented on. FIG. 4 as proportions between regression coefficients of linear relationships between capped luciferase-coding RNA concentration in translation reaction (300 pg/μl, 150 pg/μl, 75 pg/μl, 37.5 pg/μl) and corresponding luminescence signal.
# [4] = Stability studies in buffers pH 3-9, RP HPLC; format: physicochemical; conditions: room temperature; for % of remaining cap, Bufor pH 7, 4 h / % of remaining cap, Bufor pH 7, 24 h: 0.1 M HEPES pH 7.0, 20 μM; for % of remaining cap, Bufor pH 5, 4 h / % of remaining cap, Bufor pH 5, 24 h: 0.1 M acetate buffer pH 5.0, 20 μM; for % of remaining cap, Bufor pH 9, 4 h / % of remaining cap, Bufor pH 9, 24 h: 0.1 M borate buffer pH 9.0, 20 μM; for % of remaining cap, Bufor pH 3, 4 h / % of remaining cap, Bufor pH 3, 24 h: 0.1 M formate buffer pH 3.0, 20 μM
# Description: Analogues m2^7,2′-OGppp-triazole-C2H4NHppG, m2^7,2′-OGppp-triazole-C2H4OppG, m2^7,2′-OGppp-triazole-C2H4OpG, m2^7,2′-OGpp-triazole-C2H4OppG were incubated in sealed vials at 20 μM and at room temperature in four different buffers: 0.1 M formate buffer pH 3.0, 0.1 M acetate buffer pH 5.0, 0.1 M HEPES pH 7.0 and 0.1 M borate buffer pH 9.0. […] The starting compound peak area was determined for each time-point and % of remaining cap was calculated in reference to the time-point 0 h.
Structure (SMILES),hydrolysis in D2O [1] [%],Capping efficiency [2] [%],Translation efficiency [3],"% of remaining cap, Bufor pH 7, 4 h [4] [%]","% of remaining cap, Bufor pH 7, 24 h [4] [%]","% of remaining cap, Bufor pH 5, 4 h [4] [%]","% of remaining cap, Bufor pH 5, 24 h [4] [%]","% of remaining cap, Bufor pH 9, 4 h [4] [%]","% of remaining cap, Bufor pH 9, 24 h [4] [%]","% of remaining cap, Bufor pH 3, 4 h [4] [%]","% of remaining cap, Bufor pH 3, 24 h [4] [%]"
"[N-]=[N+]=NCCNP(=O)(O)OP(=O)(O)OC[C@H]1O[C@@H](n2cnc3c(=O)[nH]c(N)nc32)[C@H](O)[C@@H]1O [GppNHC2H4N3, N-(2-azidoethyl) β-phosphoramidate guanosine diphosphate ammonium salt]",15,–,–,–,–,–,–,–,–,–,–
"Nc1nc2c(ncn2[C@@H]2O[C@H](COP(=O)(O)OP(=O)(O)OP(=O)(O)OC[C@H]3O[C@@H](n4cnc5c(=O)[nH]c(N)nc54)[C@H](O)[C@@H]3O)[C@@H](O)[C@H]2O)c(=O)[nH]1 [GpppG, reference compound]",–,92,0.058 ± 0.008,–,–,–,–,–,–,–,–
"COC1C(O)[C@@H](COP(=O)(O)OP(=O)(O)OP(=O)([O-])c2cn(CCNP(=O)(O)OP(=O)(O)OC[C@H]3O[C@@H](n4cnc5c(=O)[nH]c(N)nc54)C(O)C3O)nn2)O[C@H]1n1c[n+](C)c2c(=O)[nH]c(N)nc21 (stereo partly shown) [m2^7,2′-OGppptC2H4NHppG, m2^7,2′-OGppp-triazole-C2H4NHppG]",–,43.0,2.226 ± 0.399,0,0,0,0,0.5,3.0,19.0,72.9
"COC1C(O)[C@@H](COP(=O)(O)OP(=O)(O)OP(=O)([O-])c2cn(CCOP(=O)(O)OC[C@H]3O[C@@H](n4cnc5c(=O)[nH]c(N)nc54)C(O)C3O)nn2)O[C@H]1n1c[n+](C)c2c(=O)[nH]c(N)nc21 (stereo partly shown) [m2^7,2′-OGppptC2H4OpG, m2^7,2′-OGppp-triazole-C2H4OpG]",–,47.6,2.773 ± 0.293,0,0,0,0,0.1,1.2,0,0
"COC1C(O)[C@@H](COP(=O)(O)OP(=O)(O)OP(=O)([O-])c2cn(CCOP(=O)(O)OP(=O)(O)OC[C@H]3O[C@@H](n4cnc5c(=O)[nH]c(N)nc54)C(O)C3O)nn2)O[C@H]1n1c[n+](C)c2c(=O)[nH]c(N)nc21 (stereo partly shown) [m2^7,2′-OGppptC2H4OppG, m2^7,2′-OGppp-triazole-C2H4OppG]",–,38.0,1.749 ± 0.263,0,0,0,0,–,–,0,0
"COC1C(O)[C@@H](COP(=O)(O)OP(=O)([O-])c2cn(CCOP(=O)(O)OP(=O)(O)OC[C@H]3O[C@@H](n4cnc5c(=O)[nH]c(N)nc54)C(O)C3O)nn2)O[C@H]1n1c[n+](C)c2c(=O)[nH]c(N)nc21 (stereo partly shown) [m2^7,2′-OGpptC2H4OppG, m2^7,2′-OGpp-triazole-C2H4OppG]",–,44.2,1.675 ± 0.168,–,–,–,–,–,–,–,–
"C[n+]1cn([C@@H]2O[C@H](COP(=O)(O)NCCn3cc(CP(=O)(O)OP(=O)([O-])OC[C@H]4O[C@@H](n5cnc6c(=O)[nH]c(N)nc65)C(O)C4O)nn3)C(O)C2O)c2nc(N)[nH]c(=O)c21 (stereo partly shown) [m^7GpNHC2H4tCH2ppG, m^7GpNHC2H4-triazole-CH2ppG]",11,47,0.085 ± 0.017,–,–,–,–,–,–,–,–
"C[n+]1cn([C@@H]2O[C@H](COP(=O)(O)NCCn3cc(CP(=O)(O)OP(=O)([O-])OP(=O)(O)OC[C@H]4O[C@@H](n5cnc6c(=O)[nH]c(N)nc65)C(O)C4O)nn3)C(O)C2O)c2nc(N)[nH]c(=O)c21 (stereo partly shown) [m^7GpNHC2H4tCH2pppG, m^7GpNHC2H4-triazole-CH2pppG]",7,62,0.060 ± 0.004,–,–,–,–,–,–,–,–
"C[n+]1cn([C@@H]2O[C@H](COP(=O)(O)NCCn3cc(P(=O)([O-])OP(=O)(O)OC[C@H]4O[C@@H](n5cnc6c(=O)[nH]c(N)nc65)C(O)C4O)nn3)C(O)C2O)c2nc(N)[nH]c(=O)c21 (stereo partly shown) [m^7GpNHC2H4tppG, m^7GpNHC2H4-triazole-ppG]",14,57,0.075 ± 0.009,–,–,–,–,–,–,–,–
"C[n+]1cn([C@@H]2O[C@H](COP(=O)(O)OP(=O)(O)CCc3cn(CCNP(=O)(O)OP(=O)([O-])OC[C@H]4O[C@@H](n5cnc6c(=O)[nH]c(N)nc65)[C@@H](O)C4O)nn3)[C@H](O)C2O)c2nc(N)[nH]c(=O)c21 (stereo partly shown) [m^7GppC2H4tC2H4NHppG, m^7GppC2H4-triazole-C2H4NHppG]",10,48.8,0.085 ± 0.017,–,–,–,–,–,–,–,–
"C[n+]1cn([C@@H]2O[C@H](COP(=O)([O-])OP(=O)(O)Cc3cn(CCNP(=O)(O)OC[C@H]4O[C@@H](n5cnc6c(=O)[nH]c(N)nc65)C(O)C4O)nn3)C(O)C2O)c2nc(N)[nH]c(=O)c21 (stereo partly shown) [m^7GppCH2tC2H4NHpG, m^7GppCH2-triazole-C2H4NHpG]",–,54,0.155 ± 0.019,–,–,–,–,–,–,–,–
"C[n+]1cn([C@@H]2O[C@H](COP(=O)(O)OP(=O)([O-])c3cn(CCNP(=O)(O)OC[C@H]4O[C@@H](n5cnc6c(=O)[nH]c(N)nc65)C(O)C4O)nn3)C(O)C2O)c2nc(N)[nH]c(=O)c21 (stereo partly shown) [m^7GpptC2H4NHpG, m^7Gpp-triazole-C2H4NHpG]",–,56.8,0.50 ± 0.06,–,–,–,–,–,–,–,–
